Experimental data reported in BindingDB's records for doi:10.1016/j.bmcl.2006.12.054 (Cephalon, 2007).

Biological target: Vascular endothelial growth factor receptor 2 (Homo sapiens, UniProt P35968)
Experiment: Inhibition of human cytoplasmic VEGFR2 expressed in baculovirus after 15 mins by time resolved fluorescence assay

Chain of Vascular endothelial growth factor receptor 2 (P35968 whole entry): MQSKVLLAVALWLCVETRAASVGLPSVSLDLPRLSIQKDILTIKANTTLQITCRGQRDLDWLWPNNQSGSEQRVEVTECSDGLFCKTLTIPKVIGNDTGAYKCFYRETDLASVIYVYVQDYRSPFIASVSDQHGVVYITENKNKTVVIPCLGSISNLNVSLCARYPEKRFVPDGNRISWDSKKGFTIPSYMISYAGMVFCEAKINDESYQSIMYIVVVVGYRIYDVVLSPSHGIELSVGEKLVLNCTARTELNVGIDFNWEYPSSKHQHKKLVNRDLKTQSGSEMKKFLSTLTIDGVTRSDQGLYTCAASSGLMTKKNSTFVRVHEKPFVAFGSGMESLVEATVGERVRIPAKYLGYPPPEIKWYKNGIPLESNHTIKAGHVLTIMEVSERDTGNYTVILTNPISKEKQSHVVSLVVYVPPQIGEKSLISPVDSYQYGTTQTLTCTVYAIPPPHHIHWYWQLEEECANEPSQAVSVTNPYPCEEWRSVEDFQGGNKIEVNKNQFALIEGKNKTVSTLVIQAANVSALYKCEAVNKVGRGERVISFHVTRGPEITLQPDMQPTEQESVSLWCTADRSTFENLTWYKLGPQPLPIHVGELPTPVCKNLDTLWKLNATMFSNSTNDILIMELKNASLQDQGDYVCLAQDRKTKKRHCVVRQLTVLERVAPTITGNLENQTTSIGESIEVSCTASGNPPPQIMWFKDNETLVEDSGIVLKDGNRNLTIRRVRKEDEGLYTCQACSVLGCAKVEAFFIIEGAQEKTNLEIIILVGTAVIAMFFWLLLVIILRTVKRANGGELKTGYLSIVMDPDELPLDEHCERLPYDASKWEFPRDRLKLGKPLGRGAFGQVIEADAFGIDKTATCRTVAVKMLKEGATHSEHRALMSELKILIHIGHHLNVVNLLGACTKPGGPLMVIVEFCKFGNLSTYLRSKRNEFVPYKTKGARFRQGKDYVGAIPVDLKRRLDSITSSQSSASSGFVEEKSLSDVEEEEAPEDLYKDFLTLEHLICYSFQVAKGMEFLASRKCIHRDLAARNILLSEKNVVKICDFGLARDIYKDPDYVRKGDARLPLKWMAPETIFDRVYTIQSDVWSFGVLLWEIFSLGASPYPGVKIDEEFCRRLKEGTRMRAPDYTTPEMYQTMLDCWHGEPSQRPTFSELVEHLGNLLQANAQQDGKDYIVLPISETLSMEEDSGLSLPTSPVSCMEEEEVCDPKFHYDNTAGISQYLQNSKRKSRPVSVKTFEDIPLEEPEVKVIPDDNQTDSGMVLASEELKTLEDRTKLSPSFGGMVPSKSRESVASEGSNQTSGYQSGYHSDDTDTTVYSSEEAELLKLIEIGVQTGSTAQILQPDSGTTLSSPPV

Row | IC50 | Compound
1 | > 300 nM | C=c1nns/c1=c1\[nH][nH]c(=O)c1=Cc1cn(C)c2ccc(C#N)cc12 [1-methyl-3-((3-(4-methyl-1,2,3-thiadiazol-5-yl)-5-oxo-1H-pyrazol-4(5H)-ylidene)methyl)-1H-indole-5-carbonitrile]
2 | > 300 nM | C=c1nns/c1=c1\[nH][nH]c(=O)c1=Cc1c[nH]c2ccc(Cl)cc12 [4-((5-chloro-1H-indol-3-yl)methylene)-3-(4-methyl-1,2,3-thiadiazol-5-yl)-1H-pyrazol-5(4H)-one]
